In paper PMC9856155, “Protein Conformational Dynamics Underlie Selective Recognition of Thermophilic over Mesophilic Enzyme I by a Substrate Analogue” (Biomolecules, 2023):
Read-outs that look alike come from different tables or passages of the source.

Biological target: T1, Enzyme I C-terminal domain (tEIC) (Caldanaerobacter subterraneus, UniProt Q8R7R4)
T1 construct: gene PtsA; EIC, C-terminal domain (residues 261–575)
Experiment: 1H-15N TROSY NMR chemical shift perturbation titration
Assay type: binding
Text: 1H-15N TROSY NMR chemical shift perturbation titration on Enzyme I C-terminal domain (tEIC) | both cPEP and SEP induce significant CSPs on the spectra of tEIC localized in the vicinity of the PEP binding site | SEP is particularly interesting as it binds to the thermophilic enzyme with a KD similar to the physiological substrate

T1 sequence (Q8R7R4 250-573): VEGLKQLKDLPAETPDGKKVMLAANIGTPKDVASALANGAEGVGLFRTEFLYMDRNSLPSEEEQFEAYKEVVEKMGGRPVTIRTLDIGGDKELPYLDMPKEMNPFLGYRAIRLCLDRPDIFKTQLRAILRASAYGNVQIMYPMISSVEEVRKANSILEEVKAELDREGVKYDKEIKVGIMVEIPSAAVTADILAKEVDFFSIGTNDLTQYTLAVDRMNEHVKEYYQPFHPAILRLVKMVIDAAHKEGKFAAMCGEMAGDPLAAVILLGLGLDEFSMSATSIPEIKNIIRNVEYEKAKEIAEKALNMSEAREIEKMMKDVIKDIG

Row | Compound | Kd [µM] | Kd (read-out: Kd) [µM]
1 | C=C(CP(=O)(O)O)C(=O)O [cPEP, allylicphosphonate] | 2800 | –
2 | C=C(OS(=O)(=O)O)C(=O)O [SEP, sulfoenolpyruvate] | – | 600
